The values below come from patent publication US20260199323A1, “LIGAND COMPOUNDS FOR E3 UBIQUITIN LIGASE, PROTEIN DEGRADERS DEVELOPED ON BASIS OF LIGAND COMPOUNDS, AND USES THEREOF” (GLUETACS THERAPEUTICS (SHANGHAI) CO., LTD., priority 2021, published 2026).

Each structure is given as a SMILES string. Where two headings read alike, the source gives them in different places.

Test [1] concerns MDA-MB-231. Put plainly: CCK-8 tumor cell proliferation, MDA-MB-231. The class given is cell-based, Human. The note with it: Homo sapiens; Table 15, ALK inhibitor based; MDA-MB-231; read-out: IC50 inhibiting proliferation of tumor cells, MDA-MB-231. The essentials: (§1)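 Proliferation was measured by CCK-8. Plated cells received compound 24 h later at ten 5-fold dilutions beginning at 10 μM.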

The subject of test [2] is SR. Put plainly: CCK-8 tumor cell proliferation, SR. It is filed as cell-based, Human. The note with it: Homo sapiens; Table 15, ALK inhibitor based; SR; read-out: IC50 inhibiting proliferation of tumor cells, SR. The essentials: as §1
The test system of test [3] is NCI-H2228. The experiment in a line: CCK-8 tumor cell proliferation, NCI-H2228. The note with it: Homo sapiens, Table 15, ALK inhibitor based, read-out: IC50 inhibiting proliferation of tumor cells, NCI-H2228. The procedure: (§2) The tumor cells used herein were cultured in a cell culture medium listed in table 4 at 37° C. in an incubator with 5% CO2. Prior to experimentation, all cells used were correctly identified by STR profiling, and tested negative for mycoplasma through routine screenings.
(§3) IC50 values of the compounds of the present disclosure (including the compounds in Tables 1 and 3, and compounds of examples) were measured using the Meilun Cell Counting Kit-8 kit from Dalian Meilun Biotech Co., Ltd. Assay details are as follows: tumor cells were seeded in a 96-well plate at a density listed in Table 5. After 24 h, 100 μL of the inoculated cells were treated with 0.5 μL of the compounds of the present disclosure (including the compounds in Tables 1 and 3, and compounds of examples) at 10 different successively decreasing concentrations (starting at the highest concentration of 10 μM; 5-fold serial dilutions). After the cells were treated with the compounds of the present disclosure for a period of time, the cell viability detection reagent was added to the culture medium for cell viability assessment according to the instructions provided with the CCK-8 kit. […] The growth inhibition of the compounds of the present disclosure on cells was plotted by Prism Graphpad software, and the IC50 values of the compounds of the present disclosure were calculated therefrom.

Test [4] has as its system PC-9. The experiment in a line: CCK-8 tumor cell proliferation, PC-9. It is filed as cell-based, Human. The note with it: Homo sapiens.
The test system of test [5] is HCC827. The experiment in a line: CCK-8 tumor cell proliferation, HCC827. It is filed as cell-based, Human. The note with it: Homo sapiens. The procedure:
The tumor cells used herein were cultured in a cell culture medium listed in table 4 at 37° C. in an incubator with 5% CO2.
as §3, with “After” for “IC50 values of the compounds of the present disclosure (including the compounds in Tables 1 and 3, and compounds of examples) were measured using the Meilun Cell Counting Kit-8 kit from Dalian Meilun Biotech Co., Ltd. Assay details are as follows: tumor cells were seeded in a 96-well plate at a density listed in Table 5. After”

The test system of test [6] is Mino. The experiment in a line: CCK-8 tumor cell proliferation, Mino. It is filed as cell-based, Human. The note with it: Homo sapiens; Table 15, ALK inhibitor based; Mino; read-out: IC50 inhibiting proliferation of tumor cells, Mino. Summed up:
as §1

The test system of test [7] is NCI-H1975. Put plainly: CCK-8 tumor cell proliferation, NCI-H1975. The class given is cell-based, Human. The note with it: Homo sapiens; Table 15, ALK inhibitor based; NCI-H1975; read-out: IC50 inhibiting proliferation of tumor cells, NCI-H1975. The procedure: as §2, §3
For test [8], the system named is MM.1R. Put plainly: CCK-8 tumor cell proliferation, MM.1R. The note with it: Table 23, compared to Comparative Example compounds, read-out: Inhibitory activity (IC50, nM) against tumor cell proliferation, MM.1R. The class given is cell-based. The essentials: as §1
Test [9] has as its system Jurkat. The experiment in a line: CCK-8 tumor cell proliferation, Jurkat. The note with it: Homo sapiens, Table 23, compared to Comparative Example compounds, read-out: Inhibitory activity (IC50, nM) against tumor cell proliferation, Jurkat. It is filed as cell-based, Human. Summed up:
as §1

In test [10] the test system is CAL-62. Put plainly: CCK-8 tumor cell proliferation, CAL-62. It is filed as cell-based, Human. The note with it: Homo sapiens; Table 23, compared to Comparative Example compounds; CAL-62; read-out: Inhibitory activity (IC50, nM) against tumor cell proliferation, CAL-62. Summed up: as §1
Test [11] concerns MV-4-11. Put plainly: CCK-8 tumor cell proliferation, MV-4-11. As to conditions: Homo sapiens, MV4-11; Table 15, ALK inhibitor based; MV-4-11; read-out: IC50 inhibiting proliferation of tumor cells, MV-4-11. It is filed as cell-based, Human. The essentials:
as §1

Test [12] concerns THP-1. The experiment in a line: CCK-8 tumor cell proliferation, THP-1. The class given is cell-based, Human. The note with it: Table 7, designed based on BTK inhibitors; 72 h. The procedure:
as §2, §3

Where [13] appears, read: Table 15, ALK inhibitor based, PC-9, read-out: IC50 inhibiting proliferation of tumor cells, PC-9.
Where [14] appears, read: Table 15, ALK inhibitor based, HCC827, read-out: IC50 inhibiting proliferation of tumor cells, HCC827.

With `CCc1cc2c(cc1N1CCN(Cc3ccc4c(c3)CN(C3CCC(=O)NC3=O)C4=O)CC1)C(C)(C)c1[nH]c3cc(C#N)ccc3c1C2=O` (centres unmarked) [GT-03409, 8-(4-((2-(2,6-dioxopiperidin-3-yl)-1-oxoisoindolin-5-yl)methyl)piperazin-1-yl)-9-ethyl-6,6-dimethyl-11-oxo-6,11-dihydro-5H-benzo[b]carbazole-3-carbonitrile], the IC50 is 1000 to 5000 nM in [1]; under 50 nM in test [2]; 1000 to 5000 nM in [3]; 1000 to 5000 nM in test [4] (setting [13]); 1000 to 5000 nM in test [5] (setting [14]).
As to `COc1cc(N2CCC(N(C)Cc3ccc4c(c3)CN(C3CCC(=O)NC3=O)C4=O)CC2)ccc1Nc1ncc(Cl)c(Nc2ccccc2P(C)(C)=O)n1` (centres unmarked) [GT-03319, 3-(5-(((1-(4-((5-chloro-4-((2-(dimethylphosphoryl)phenyl)amino)pyrimidin-2-yl)amino)-3-methoxyphenyl)piperidin-4-yl)(methyl)amino)methyl)-1-oxoisoindolin-2-yl)piperidine-2,6-dione], the IC50 in test [6] is 1000 to 5000 nM; in test [1], 50 to 100 nM; in [7], under 50 nM; in [2], under 50 nM; in test [3], 50 to 100 nM; in test [4] (setting [13]) it was 50 to 100 nM. The IC50 is 100 to 500 nM in test [8], 1000 to 5000 nM in [9], 50 to 100 nM in test [5] (setting [14]) and under 50 nM in test [10].
In the case of `COc1cc(N2CCC(N3CCN(C)CC3)CC2)ccc1Nc1ncc(Cl)c(Nc2ccccc2P(C)(C)=O)n1` [brigatinib, reference compound], the IC50 is 5000 to 10000 nM in [6]; 500 to 1000 nM in test [1]; 500 to 1000 nM in test [7]; under 50 nM in test [2]; 100 to 500 nM in test [3]; 1000 to 5000 nM in test [4] (PC-9, read-out: IC50 inhibiting proliferation of tumor cells, PC-9). In addition, the IC50 in test [5] (HCC827, read-out: IC50 inhibiting proliferation of tumor cells, HCC827) fell in the range of 100 to 500 nM.
Consider `CCc1cc2c(cc1N1CCC(N3CCN(Cc4cc(F)c5c(c4)CN(C4CCC(=O)NC4=O)C5=O)CC3)CC1)C(C)(C)c1[nH]c3cc(C#N)ccc3c1C2=O` (centres unmarked) [GT-03760, 8-(4-(4-((2-(2,6-dioxopiperidin-3-yl)-7-fluoro-1-oxoisoindolin-5-yl)methyl)piperazin-1-yl)piperidin-1-yl)-9-ethyl-6,6-dimethyl-11-oxo-6,11-dihydro-5H-benzo[b]carbazole-3-carbonitrile], for which the IC50 in [6] is 100 to 500 nM; in [7], 50 to 100 nM; in test [2], under 50 nM; in test [3], 100 to 500 nM; in test [11], 500 to 1000 nM.
On to `NC(=O)c1ccc(N2CCN(Cc3ccc4c(c3)CN(C3CCC(=O)NC3=O)C4=O)CC2)nc1-c1ccc(Oc2ccccc2)cc1` (centres unmarked) [GT-03636, 6-(4-((2-(2,6-dioxopiperidin-3-yl)-1-oxoisoindolin-5-yl)methyl)piperazin-1-yl)-2-(4-phenoxyphenyl)nicotinamide], for which the “IC50 for inhibiting the proliferation of tumor cells, THP-1” value in test [12] is “A+”.
For `CCc1cc2c(cc1N1CCC(N3CCN(Cc4ccc5c(c4)CN(C4CCC(=O)NC4=O)C5=O)CC3)CC1)C(C)(C)c1[nH]c3cc(C#N)ccc3c1C2=O` (centres unmarked) [GT-02972, 8-(4-(4-((2-(2,6-dioxopiperidin-3-yl)-1-oxoisoindolin-5-yl)methyl)piperazin-1-yl)piperidin-1-yl)-9-ethyl-6,6-dimethyl-11-oxo-6,11-dihydro-5H-benzo[b]carbazole-3-carbonitrile], the IC50 in [6] is 500 to 1000 nM; in [1], 500 to 1000 nM; in [7], 500 to 1000 nM; in [2], under 50 nM; in [3], 500 to 1000 nM; in [4] (setting [13]) it was 500 to 1000 nM. Besides, the IC50 in test [5] (setting [14]) lay in the range of 1000 to 5000 nM.
